Assay [1] has as its target T1, Sentrin-specific protease 6 (Homo sapiens, UniProt Q9GZR1).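 Further: Luminescence-based dose-response confirmatory assay of SENP6 inhibition, following up an ultra-high-throughput screen.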
T1 sequence (Q9GZR1 whole entry): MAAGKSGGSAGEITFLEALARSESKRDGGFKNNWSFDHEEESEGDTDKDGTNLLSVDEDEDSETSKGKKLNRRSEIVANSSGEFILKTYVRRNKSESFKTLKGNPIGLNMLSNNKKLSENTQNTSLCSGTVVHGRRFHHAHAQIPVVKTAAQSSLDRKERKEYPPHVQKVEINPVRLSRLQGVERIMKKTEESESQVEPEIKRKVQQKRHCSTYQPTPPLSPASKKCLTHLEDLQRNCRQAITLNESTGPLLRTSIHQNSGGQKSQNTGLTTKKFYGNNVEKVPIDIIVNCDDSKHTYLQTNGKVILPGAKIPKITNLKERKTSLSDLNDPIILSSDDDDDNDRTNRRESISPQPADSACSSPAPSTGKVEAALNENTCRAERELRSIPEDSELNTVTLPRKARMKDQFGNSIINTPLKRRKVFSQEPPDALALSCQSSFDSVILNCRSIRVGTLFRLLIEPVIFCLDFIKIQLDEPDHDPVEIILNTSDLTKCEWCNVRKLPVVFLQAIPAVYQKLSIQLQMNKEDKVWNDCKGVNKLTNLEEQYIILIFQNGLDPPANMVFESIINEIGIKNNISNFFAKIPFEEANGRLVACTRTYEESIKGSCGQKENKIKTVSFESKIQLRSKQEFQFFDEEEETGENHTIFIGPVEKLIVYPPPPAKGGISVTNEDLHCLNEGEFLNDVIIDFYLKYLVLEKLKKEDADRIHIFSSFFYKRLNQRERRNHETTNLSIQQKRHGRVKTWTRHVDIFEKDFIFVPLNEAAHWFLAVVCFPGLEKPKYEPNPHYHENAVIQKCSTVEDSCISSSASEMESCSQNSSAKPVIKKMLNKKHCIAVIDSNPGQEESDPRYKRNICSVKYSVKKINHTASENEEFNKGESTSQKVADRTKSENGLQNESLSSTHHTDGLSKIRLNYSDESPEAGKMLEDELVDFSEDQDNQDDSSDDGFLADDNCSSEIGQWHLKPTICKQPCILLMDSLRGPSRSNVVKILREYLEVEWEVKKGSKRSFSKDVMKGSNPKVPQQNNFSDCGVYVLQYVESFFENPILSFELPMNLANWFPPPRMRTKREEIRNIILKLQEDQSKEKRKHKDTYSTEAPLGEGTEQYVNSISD
The class given is functional.

In assay [2] the target is T2, Histone-lysine N-methyltransferase NSD2 (Homo sapiens, UniProt O96028).
T2 sequence (O96028 whole entry): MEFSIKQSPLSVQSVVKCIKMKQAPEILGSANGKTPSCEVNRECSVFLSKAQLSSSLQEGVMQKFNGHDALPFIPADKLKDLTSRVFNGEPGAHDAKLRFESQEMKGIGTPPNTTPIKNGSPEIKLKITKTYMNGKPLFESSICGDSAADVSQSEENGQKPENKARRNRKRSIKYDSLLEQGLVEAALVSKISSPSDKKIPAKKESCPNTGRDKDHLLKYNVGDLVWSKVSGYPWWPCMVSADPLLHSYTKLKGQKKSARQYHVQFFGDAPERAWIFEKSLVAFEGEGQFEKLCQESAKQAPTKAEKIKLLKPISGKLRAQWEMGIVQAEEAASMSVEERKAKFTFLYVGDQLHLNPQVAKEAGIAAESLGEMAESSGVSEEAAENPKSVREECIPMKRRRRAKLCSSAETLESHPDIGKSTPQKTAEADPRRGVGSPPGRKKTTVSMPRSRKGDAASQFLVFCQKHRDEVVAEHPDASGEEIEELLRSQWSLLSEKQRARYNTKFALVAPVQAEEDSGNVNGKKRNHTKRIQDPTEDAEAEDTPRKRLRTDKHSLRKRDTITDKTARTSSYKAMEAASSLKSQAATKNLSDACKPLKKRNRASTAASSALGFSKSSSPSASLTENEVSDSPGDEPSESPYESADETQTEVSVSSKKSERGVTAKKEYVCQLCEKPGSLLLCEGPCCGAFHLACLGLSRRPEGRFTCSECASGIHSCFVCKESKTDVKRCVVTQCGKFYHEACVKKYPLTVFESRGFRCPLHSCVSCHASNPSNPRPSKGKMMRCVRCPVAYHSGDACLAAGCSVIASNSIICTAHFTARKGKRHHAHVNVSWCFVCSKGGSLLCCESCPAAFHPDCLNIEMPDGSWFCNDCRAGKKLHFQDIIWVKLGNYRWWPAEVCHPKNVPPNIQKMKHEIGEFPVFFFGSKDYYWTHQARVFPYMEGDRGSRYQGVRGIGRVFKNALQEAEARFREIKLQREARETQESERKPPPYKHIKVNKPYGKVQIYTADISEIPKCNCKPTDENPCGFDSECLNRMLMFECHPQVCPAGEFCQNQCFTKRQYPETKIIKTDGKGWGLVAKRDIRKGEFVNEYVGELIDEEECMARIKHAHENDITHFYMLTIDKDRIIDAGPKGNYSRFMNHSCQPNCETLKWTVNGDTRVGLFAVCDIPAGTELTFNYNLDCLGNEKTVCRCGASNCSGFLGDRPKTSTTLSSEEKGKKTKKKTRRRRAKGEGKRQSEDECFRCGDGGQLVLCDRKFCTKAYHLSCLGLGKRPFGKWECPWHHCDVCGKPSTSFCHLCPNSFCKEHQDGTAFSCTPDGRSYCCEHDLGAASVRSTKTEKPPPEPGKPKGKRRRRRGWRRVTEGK
It is filed as biochemical.

A further assay deals with T3, Leucine aminopeptidase (Plasmodium falciparum 3D7, UniProt Q8IL11).
T3 sequence (Q8IL11 whole entry): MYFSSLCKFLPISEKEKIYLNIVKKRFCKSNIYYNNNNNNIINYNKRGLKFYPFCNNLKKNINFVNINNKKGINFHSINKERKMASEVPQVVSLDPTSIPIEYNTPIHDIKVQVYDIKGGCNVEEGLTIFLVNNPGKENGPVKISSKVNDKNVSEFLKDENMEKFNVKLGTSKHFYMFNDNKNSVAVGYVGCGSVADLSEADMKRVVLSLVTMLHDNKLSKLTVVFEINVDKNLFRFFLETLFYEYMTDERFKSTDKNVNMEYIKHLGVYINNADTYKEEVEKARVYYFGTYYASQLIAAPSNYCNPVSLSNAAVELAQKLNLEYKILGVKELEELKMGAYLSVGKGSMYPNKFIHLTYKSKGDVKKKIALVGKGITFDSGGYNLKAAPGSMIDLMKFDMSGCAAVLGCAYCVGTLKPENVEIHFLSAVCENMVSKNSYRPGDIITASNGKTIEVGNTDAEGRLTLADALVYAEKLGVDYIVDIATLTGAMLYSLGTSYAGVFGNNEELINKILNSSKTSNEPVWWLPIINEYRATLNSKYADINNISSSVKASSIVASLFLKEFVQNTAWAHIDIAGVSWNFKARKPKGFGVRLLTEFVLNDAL
As to the kind of experiment: P. falciparum M17LAP inhibitors, primary screen, biochemical, fluorogenic H-Leu-NHMec substrate, 1536-well (AID 1619). The class given is functional.

Each structure is given as a SMILES string. The source made the active and inactive calls. A value given as a limit tells only on which side of the number the result lay.

Turning to `c1ccc2c(Nc3nnc(-c4ccncc4)s3)cccc2c1`, the IC50 in assay [1] was 10.1 µM (active).

For `COc1cc(C(=O)c2nccc3cc(OC)c(OC)cc23)c([N+](=O)[O-])cc1OC`, the IC50 in assay [1] was 0.936 µM (active). Also, the AC50 in assay [2] is > 20 µM (inactive). For the compound `N=C1S/C(=C\c2ccc(-c3ccccc3C(=O)O)o2)C(=O)N1c1ccc2c(c1)OCO2`, the IC50 on Leucine aminopeptidase was 29 µM (active). Besides, the AC50 in assay [2] was 3.28 µM (active). As to `N#Cc1c(O)nc(SCC(=O)N2c3ccccc3Sc3ccccc32)nc1-c1ccccc1`, the IC50 at Leucine aminopeptidase was 10.2 µM (active).

For orientation: IC50 means the concentration needed to halve the response being measured. The term AC50 denotes the midpoint of the concentration-response curve, whichever way the signal moves.

These data come from ChEMBL document CHEMBL1201862, “PubChem BioAssay data set” (2004).
